Publication PMC9128806 (Journal of medicinal chemistry, 2021)
Values belong to the compound of their own block, whether it stands above or below them.

Experiments:
[1] = system: human leukemia EU-1 cell line; assay: WST antiproliferative/cytotoxicity assay, EU-1; assay type: cell-based; conditions: for fold drop in potency, para to meta position: 16 vs 13, 17 vs 14; for fold increased potency compared to 2: para-ester replaced by acetyl or isobutyryl
[2] = mice; cited from earlier work
MDM2 [3] = target: T1, MDM2 (Homo sapiens, UniProt Q00987); assay: MDM2 binding; conditions: subsequent mechanistic studies, no data shown
T1 sequence (Q00987 whole entry): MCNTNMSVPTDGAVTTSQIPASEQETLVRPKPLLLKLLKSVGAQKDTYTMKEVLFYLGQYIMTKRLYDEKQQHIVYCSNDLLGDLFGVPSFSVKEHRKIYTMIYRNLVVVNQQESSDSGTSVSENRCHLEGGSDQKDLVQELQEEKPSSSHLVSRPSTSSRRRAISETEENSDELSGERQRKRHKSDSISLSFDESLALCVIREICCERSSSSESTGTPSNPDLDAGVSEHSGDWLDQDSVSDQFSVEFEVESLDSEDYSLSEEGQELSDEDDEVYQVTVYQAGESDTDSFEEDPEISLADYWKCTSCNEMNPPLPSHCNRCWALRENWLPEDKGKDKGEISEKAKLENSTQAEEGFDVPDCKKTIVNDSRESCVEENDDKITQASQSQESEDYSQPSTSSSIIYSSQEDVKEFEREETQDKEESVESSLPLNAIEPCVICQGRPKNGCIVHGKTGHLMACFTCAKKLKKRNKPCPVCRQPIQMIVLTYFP

[4] = system: NB cell lines (NB-1643, SHEP1, and LA1–55N); assay: WST cytotoxicity assay, NB cell lines; assay type: cell-based; conditions: Homo sapiens, 48 h
MDM2 [5] = target: T1, MDM2; assay: Western blot, MDM2 expression in EU-1 cells; assay type: cell-based
[6] = system: ALL cell lines (EU-1 and EU-3); assay: WST cytotoxicity assay, ALL cell lines; assay type: cell-based; conditions: Homo sapiens, 48 h
p53, p21 and PUMA = assay: Western blot, p53 and its targets p21 and PUMA; assay type: cell-based, human; conditions: EU-1 cells; accompanying MDM2 downregulation
XIAP = assay: Western blot, XIAP expression in EU-1 cells; assay type: cell-based, human; conditions: dose-dependent
[7] = system: human normal bone marrow mononuclear (NBMM) cells; assay: Clonogenic assays for CFU-GM and BFU-E; assay type: cell-based; conditions: 1 μM, colonies counted after 14 days, vs control

Compound: Cc1ccc(NS(=O)(=O)c2ccc3c(c2)[C@H]2OCC[C@H]2[C@@H](c2ccc(C(=O)C(C)C)cc2)N3)cc1C [Compound 14d, (3aS,4S,9bS)-N-(3,4-Dimethylphenyl)-4-(4-isobutyrylphenyl)-2,3,3a,4,5,9b-hexahydrofuro[3,2-c]quinoline-8-sulfonamide]
fold higher potency compared to the other three isomers ([1]; 14d vs 14a–c): 5- to 8 fold

Compound: Cc1ccc(NS(=O)(=O)c2ccc3c(c2)C2C=CCC2C(c2ccc(C(=O)C(C)C)cc2)N3)cc1C (stereo not drawn) [Compound 27, N-(3,4-Dimethylphenyl)-4-(4-isobutyrylphenyl)-3a,4,5,9b-tetrahydro-3H-cyclopenta[c]quinoline-8-sulfonamide]
fold decreased potency compared to 14 ([1]; EU-1 IC50 ratio): 5 fold

Compound: Cc1ccc(NS(=O)(=O)c2ccc3c(c2)C2NCCC2C(c2ccc(C(=O)C(C)C)cc2)N3)cc1C (stereo not drawn) [Compound 30, N-(3,4-Dimethylphenyl)-4-(4-isobutyrylphenyl)-2,3,3a,4,5,9b-hexahydro-1H-pyrrolo[3,2-c]quinoline-8-sulfonamide]
fold decreased potency compared to 14 ([1]; EU-1 IC50 ratio): 6 fold

Compound: Cc1ccc(NS(=O)(=O)c2ccc3c(c2)C2OCCC2C(c2ccc(C(=O)C4CC4)cc2)N3)cc1C (stereo not drawn) [Compound 22, 4-(4-(Cyclopropanecarbonyl)phenyl)-N-(3,4-dimethylphenyl)-2,3,3a,4,5,9b-hexahydrofuro[3,2-c]quinoline-8-sulfonamide]
fold decreased potency compared to 14 ([1]; EU-1 IC50 ratio): 10 fold

Compound: Cc1ccc(NS(=O)(=O)c2ccc3c(c2)C2OCCC2C(c2ccc(C(=O)C4CCCCC4)cc2)N3)cc1C (stereo not drawn) [Compound 25, 4-(4-(Cyclohexanecarbonyl)phenyl)-N-(3,4-dimethylphenyl)-2,3,3a,4,5,9b-hexahydrofuro[3,2-c]quinoline-8-sulfonamide]
fold decreased potency compared to 14 ([1]; EU-1 IC50 ratio): approximately 6 fold

Compound: CC(=O)c1cccc(C2Nc3ccc(S(=O)(=O)Nc4ccc(C)c(C)c4)cc3C3OCCC23)c1 (stereo not drawn) [Compound 16, 4-(3-Acetylphenyl)-N-(3,4-dimethylphenyl)-2,3,3a,4,5,9b-hexahydrofuro[3,2-c]quinoline-8-sulfonamide]
fold drop in potency, para to meta position [1]: 4 fold

Compound: Cc1ccc(N(C)S(=O)(=O)c2ccc3c(c2)C2OCCC2C(c2ccc(C(=O)C(C)C)cc2)N3C)cc1C (stereo not drawn) [Compound 45, N-(3,4-Dimethylphenyl)-4-(4-isobutyrylphenyl)-N,5-dimethyl-2,3,3a,4,5,9b-hexahydrofuro[3,2-c]quinoline-8-sulfonamide]
fold decreased potency compared to 14 ([1]; EU-1 IC50 ratio): 2 fold

Compound: Cc1ccc(NS(=O)(=O)c2ccc3c(c2)C2C=CCC2C(c2ccc(C(=O)O)cc2)N3)cc1C (stereo not drawn) [MX69]
tolerability [2]: well tolerated

Compound: Cc1ccc(NS(=O)(=O)c2ccc3c(c2Cl)C2C=CCC2C(c2ccc(S(C)(=O)=O)cc2)N3)cc1C (stereo not drawn) [Compound 44, 9-Chloro-N-(3,4-dimethylphenyl)-4-(4-(methylsulfonyl)phenyl)-3a,4,5,9b-tetrahydro-3H-cyclopenta[c]quinolone-8-sulfonamide]
fold less potent than parent compound 42 ([1]; EU-1 IC50 ratio): approximately 6 fold

Compound: Cc1ccc(NS(=O)(=O)c2ccc3c(c2)C2CCCC2C(c2ccc(C(=O)C(C)C)cc2)N3)cc1C (stereo not drawn) [Compound 28, N-(3,4-Dimethylphenyl)-4-(4-isobutyrylphenyl)-2,3,3a,4,5,9b-hexahydro-1H-cyclopenta[c]quinoline-8-sulfonamide]
fold drop in potency compared to 27 ([1]; saturation of cyclopentene double bond): approximately 3 fold

Compound: Cc1ccc(NS(=O)(=O)c2ccc3c(c2)C2OCCC2C(c2ccc(C(O)C(C)C)cc2)N3)cc1C (stereo not drawn) [Compound 15, N-(3,4-Dimethylphenyl)-4-(4-(1-hydroxy-2-methylpropyl)phenyl)-2,3,3a,4,5,9b-hexahydrofuro[3,2-c]-quinoline-8-sulfonamide]
fold decreased potency compared to 14 ([1]; EU-1 IC50 ratio): approximately 4 fold

Compound: Cc1ccc(NS(=O)(=O)c2ccc3c(c2)C2OCCC2C(c2cccc(C(=O)C(C)C)c2)N3)cc1C (stereo not drawn) [Compound 17, N-(3,4-Dimethylphenyl)-4-(3-isobutyrylphenyl)-2,3,3a,4,5,9b-hexahydrofuro[3,2-c]quinoline-8-sulfonamide]
fold drop in potency, para to meta position [1]: 7 fold

Compound: Cc1ccc(N(C)S(=O)(=O)c2ccc3c(c2)C2OCCC2C(c2ccc(C(=O)C(C)C)cc2)N3)cc1C (stereo not drawn) [Compound 46, N-(3,4-Dimethylphenyl)-4-(4-isobutyrylphenyl)-N-methyl-2,3,3a,4,5,9b-hexahydrofuro[3,2-c]quinoline-8-sulfonamide]
fold decreased potency compared to 14 ([1]; EU-1 IC50 ratio): 3 fold

Compound: Cc1ccc(NS(=O)(=O)c2ccc3c(c2)C2OCCC2C(c2ccc(C(=O)c4ccccc4)cc2)N3)cc1C (stereo not drawn) [Compound 26, 4-(4-Benzoylphenyl)-N-(3,4-dimethylphenyl)-2,3,3a,4,5,9b-hexahydrofuro[3,2-c]quinoline-8-sulfonamide]
fold decreased potency compared to 14 ([1]; EU-1 IC50 ratio): approximately 6 fold

Compound: CC(=O)c1ccc(C2Nc3ccc(S(=O)(=O)Nc4ccc(C)c(C)c4)cc3C3OCCC23)cc1 (stereo not drawn) [Compound 13, 4-(4-Acetylphenyl)-N-(3,4-dimethylphenyl)-2,3,3a,4,5,9b-hexahydrofuro[3,2-c]quinoline-8-sulfonamide]
binding to the MDM2 target (MDM2 [3]): does not bind to the MDM2 target
fold increased potency compared to 2 [1]: approximately 4 fold

Compound: Cc1ccc(NS(=O)(=O)c2ccc3c(c2)C2OCCC2C(c2ccc(C(=O)C(C)C)cc2)N3)cc1C (stereo not drawn) [Compound 14, N-(3,4-Dimethylphenyl)-4-(4-isobutyrylphenyl)-2,3,3a,4,5,9b-hexahydrofuro[3,2-c]quinoline-8-sulfonamide]
IC50 [4]: 0.5 to 1.2 µM
time after treatment at which downregulation of MDM2 and XIAP occurred (MDM2 [5]; MDM2 and XIAP): 2 to 4 h
MDM2 expression (MDM2 [5]; dose-dependent): remarkable downregulation
IC50 [6]: 0.3 to 0.4 µM
fold increased potency compared to 2 [1]: approximately 4 fold
p53 expression (p53, p21 and PUMA): increased expression of p53
XIAP expression (XIAP): remarkable downregulation

CFU-GM and BFU-E colony numbers and size [7]: significantly reduced
Compound: COc1cccc2c1C(=O)c1c(O)c3c(c(O)c1C2=O)C[C@@](O)(C(=O)CO)C[C@@H]3O[C@H]1C[C@H](N)[C@H](O)[C@H](C)O1 [Dox, doxorubicin]
